Laboratory results taken from patent USRE48636E1, “Decoy peptides inhibiting protein phosphatase 1-mediated dephosphorylation of phospholamban” (BethphaGen Inc., priority 2012, dated 2021).
“Also recorded” adds a separate entry of the source. No end group written: not given here.

Tests used:
[1] = system: adult cardiomyocytes; experiment: Cell contractility of isolated adult cardiomyocytes (video-based edge detection); design: species or system rat; conditions: for Effect on PMA-induced reduction in contractility (peak shortening, rates of contraction and relaxation): 1 μM peptide 45 min, then 1 μM PMA 15 min
Experimental: (§1) FIGS. 2a-2d represent the increase in cardiac contractility by the decoy peptides. Isolated adult cardiomyocytes were treated with 1 μM of indicated peptides for 45 min, and then with 1 μM of PMA for 15 min. Contractile parameters were then determined. FIGS. 2a and 2b show contractile parameters. Peak cell shortening, percentage of shortened cell length; −dL/dt, maximal rate of cell shortening; +dL/dt, maximal rate of cell relengthening. FIGS. 2c and 2d show average parameters of the transient Ca^2+ properties determined with Fura2/AM. Baseline [Ca^2+]i, baseline intracellular Ca^2+ levels; Δ[Ca^2+]i (340/380), increase in intracellular Ca^2+ levels in response to electric Stimuli; τ(ms), Ca^2+ transient decay rate. Approximately 500 cells were chosen for the contractility and Ca^2+ transient measurements were taken from eight individual hearts. #, P<0.05; *, P<0.01 compared to control; error bars represent SD.
(§2) Ventricular myocytes were isolated from SD rat hearts as previously described with minor modifications. Male rats of 8-12 weeks of age (250-320 g) were used. In brief, rats were anesthetized by the inhalation of isofluran (0.5%) for 5 min. The heart was quickly removed from the chest and the aorta was retrogradely perfused at 37° C. for 3 min with calcium-free Tyrode buffer (137 mM NaCl, 5.4 mM KCl, 1 mM MgCl2, 10 mM glucose, 10 mM HEPES [pH 7.4], 10 mM 2, 3-butanedione monoxime, and 5 mM taurine) gassed with 100% O2. The enzymatic digestion was then initiated by adding collagenase type B (0.35 U/ml; Roche) and hyaluronidase (0.1 mg/ml; Worthington) to the perfusion solution. When the heart became swollen after 10 min of digestion, the left ventricle was quickly removed, cut into several chunks, and further digested in a shaker (60-70 rpm) for 10 min at 37° C. in the same enzyme solution. The supernatant containing the dispersed myocytes was then filtered through a cell strainer (100 μm in pore size, BD Falcon) and gently centrifuged at 500 rpm for 1 min. Extracellular Ca^2+ was incrementally added back to a concentration of 1.25 mM over a span of 30 min to avoid the Ca^2+ paradox. This procedure usually yielded ≥80% viable rod-shaped ventricular myocytes with clear sarcomere striations. Myocytes with obvious sarcolemmal blebs or spontaneous contractions were discarded.
(§3) The mechanical properties of ventricular myocytes were assessed using a video-based edge detection system (IonOptix), as previously described. In brief, laminin-coated coverslips with attached cells were placed in a chamber mounted on the stage of an inverted microscope (Nikon Eclipse TE-100F) and perfused (about 1 ml/min at 37° C.) with Tyrode buffer (137 mM NaCl, 5.4 mM KCl, 1 mM CaCl2, 1 mM MgCl2, 10 mM glucose, and 10 mM HEPES [pH 7.4]). The cells were field-stimulated at a frequency of 3 Hz (30 V) using a STIM-AT stimulator/thermostat placed on a HLD-CS culture chamber/stim holder (Cell Micro Controls). […] Changes in cell length during shortening and relengthening were captured and analyzed using soft edge software (IonOptix). The cardiomyocytes were loaded with 0.5 μM Fura2-AM (Molecular Probes), a Ca^2+-sensitive indicator, for 15 min at 37° C. Fluorescence emissions were recorded simultaneously with the contractility measurements using Myocyte calcium and contractility recording system (IonOptix). Cardiomyocytes were exposed to light emitted by a 75 W halogen lamp through either a 340 or 380 nm filter while being field-stimulated as described above. Fluorescence emissions were detected between 480 and 520 nm by a photomultiplier tube after initial illumination at 340 nm for 0.5 ms and then at 380 nm for the duration of the recording protocol. The 340 nm excitation scan was then repeated at the end of the protocol, and qualitative changes in the intracellular Ca^2+ concentration were inferred from the ratio of the Fura fluorescence intensity at both wavelengths.

[2] = system: adult cardiomyocytes; experiment: Intracellular Ca2+ transient measurement (Fura2-AM) in isolated adult cardiomyocytes; type: cell-based, rat; conditions: for Effect on PMA-induced defects in intracellular Ca2+ handling (Ca2+ transient amplitude, time constant of decay): 1 μM peptide 45 min, then 1 μM PMA 15 min, Fura2/AM
Experimental: as §1, §2, §3

[3] = system: PP1-mediated dephosphorylation of PLB; experiment: PLB phosphorylation (Western blot) in PMA-treated isolated adult cardiomyocytes; type: cell-based, rat; conditions: 1 μM peptide 45 min, then 1 μM PMA 15 min; for Blocking of PMA-induced dephosphorylation of PLB at Ser16 and Thr17 (elevating the phosphorylation levels of PLB): Western blot
Experimental: FIGS. 1c-1d represent the increase in PLB phosphorylation by the decoy peptides (FIG. 1c) and shortened decoy peptides (FIG. 1d). Isolated adult cardiomyocytes were treated with 1 μM of indicated peptides for 45 min, and then with 1 μM of PMA for 15 min. Western blots of cell lysates were then probed with antibodies against phospho-PLB (S^16), phospho-PLB (T^17), total PLB, or GAPDH. The decoy peptides contain the following sequences: ψPLB-SE, RAETIEMPQ (SEQ ID NO:1); ψPLB-SD, RADTIEMPQ (SEQ ID NO:3); ψPLB-TE, RASEIEMPQ (SEQ ID NO:2). The shortened decoy peptides contain the following sequences: ψPLB-8-mer, AETIEMPQ (SEQ ID NO:4); ψPLB-7-mer, RAETIEM (SEQ ID NO:5); ψPLB-6-mer, RAETIE (SEQ ID NO:6); ψPLB-5-mer: RAETI (SEQ ID NO:7). PMA, phorbol 12-myristate 13-acetate.
The decoy peptides were derived from the PLB protein sequence (SEQ ID NO:10) surrounding the phosphorylation sites Ser^16 and Thr^17: RAS^16T^17IEMPQ. The peptides were conjugated via a cystein-cystein bond at their N termini to the cell penetrating peptide TAT (YGRKKRRQRRR (SEQ ID NO:11)) to facilitate uptake into cells. The peptides used in this invention were as follows: ψPLB-wt, RASTIEMPQ (SEQ ID NO:8); ψPLB-SE, RAETIEMPQ (SEQ ID NO:1); ψPLB-TE, RASEIEMPQ (SEQ ID NO:2); ψPLB-SD, RADTIEMPQ (SEQ ID NO:3). In addition, shortened ψPLB-SE peptides were also tested: 8-mer, AETIEMPQ (SEQ ID NO:4); 7-mer, RAETIEM (SEQ ID NO:5); 6-mer, RAETIE (SEQ ID NO:6); 5-mer, RAETI (SEQ ID NO:7). All of the peptides were synthesized and modified by AnyGen (Gwangju, Korea) and dissolved in distilled water to a stock concentration of 1 mM. Peptides were >95% pure. The decoy peptides were treated for 1 h at a final concentration of 1 μM.
as §2
(§4) Heart lysates (50 μg) in SDS sample buffer were run on a SDS-PAGE gel and then transferred to a PVDF membrane (Bio-Rad). The membrane was blocked with a 5% skim milk solution and then incubated overnight with antibodies directed against PLB (Affinity Bioreagents), phospho-PLB (Ser^16, Cell Signaling), phospho-PLB (Thr^17, Badrilla), SERCA2a (Santa Cruz), Caspase 3 (Cell Signaling), or GAPDH (Santa Cruz). The membranes were then incubated with a secondary antibody conjugated to horseradish peroxidase (Jackson Immuno Research) and developed using the Western Lighting chemiluminescence reagent (Perkin Elmer).

[4] = system: rat hearts; experiment: Langendorff isolated perfused heart, ischemia/reperfusion ex vivo, left ventricular developed pressure; conditions: 20 min no-flow ischemia, 30 min reperfusion with 1 μM peptide
Experimental: (§5) FIGS. 3a-3b represent the postischemic cardiac performance ex vivo. […] The changes in left ventricular developed pressure (LVDP) are shown. n=4. *, P<0.01 compared to TAT; error bars represent SEM. […] Western blots probed with antibodies against phospho-PLB (S^16), phosphor-PLB (T^17), total PLB, Caspase 3, or GAPDH are shown.
Rats were anesthetized by inhalation of isofluran (0.5%) for 5 min. The heart was quickly removed and placed in cold oxygenated Tyrode solution (137 mM NaCl, 5.4 mM KCl, 1 mM MgCl2, 10 mM glucose, 1 mM CaCl2, 10 mM HEPES [pH 7.4], 100% O2). The aorta was cannulated and perfused by the Langendorff method with oxygenated Tyrode solution at constant pressure (65 mmHg, temperature 37±0.2° C.). A latex water-filled balloon was inserted into the left ventricular chamber and connected to a pressure transducer (AD Instruments) for continuous measurement of heart performance. Heart rate, left ventricular developed pressure (LVDP), and the first derivatives of LV pressure (LV +dP/dt max and LV −dP/dt max) were all recorded using PowerLab Chart Systems (AD Instruments). The balloon volume was adjusted in 250-300 μl to result in a measured end diastolic pressure in the range of 6-10 mmHg. After a 30 min stabilization period, the hearts were subjected to 20 min of no-flow to induce global ischemia, followed by 30 min of reperfusion. […]

[5] = system: Caspase 3; experiment: Western blot of heart lysates after ischemia/reperfusion: Caspase 3; design: species or system rat; conditions: heart lysates at the end of reperfusion with 1 μM peptide
Experimental: as §5, §4
(§6) Rats were anesthetized by inhalation of isofluran (0.5%) for 5 min. […] Heart rate, left ventricular developed pressure (LVDP), and the first derivatives of LV pressure (LV +dP/dt max and LV −dP/dt max) were all recorded using PowerLab Chart Systems (AD Instruments). The balloon volume was adjusted in 250-300 μl to result in a measured end diastolic pressure in the range of 6-10 mmHg. […]

[6] = system: PLB; experiment: Western blot of heart lysates after ischemia/reperfusion: phospho-PLB; design: species or system rat; conditions: heart lysates at the end of reperfusion with 1 μM peptide
Experimental: as §5, §4, §6

[7] = 1 μM PMA 15 min, no decoy peptide

| Compound | Blocking of PMA-induced dephosphorylation of PLB at Ser16 and Thr17 (elevating the phosphorylation levels of PLB) [3] | Effect on PMA-induced reduction in contractility (peak shortening, rates of contraction and relaxation) [1] | Effect on PMA-induced defects in intracellular Ca2+ handling (Ca2+ transient amplitude, time constant of decay) [2] | further results |
| --- | --- | --- | --- | --- |
| CCCCCCCCCCCCCC(=O)O[C@@H]1[C@@H](C)[C@@]2(O)[C@@H](C=C(CO)C[C@]3(O)C(=O)C(C)=C[C@@H]23)[C@@H]2C(C)(C)[C@]12OC(C)=O [PMA, phorbol 12-myristate 13-acetate, reference compound] | – | – | – | Contractility (peak shortening, rates of contraction and relaxation) [1, 7]: significantly reduced; Ca2+ transient amplitude [2, 7]: significant reduction; Time constant of the Ca2+ transient decay [2, 7]: significant increase |
| AETIEMPQ (not fully specified (N-terminus); also: TAT coupled) [ψPLB-8-mer] | only ψPLB-5-mer was ineffective | – | – | – |
| RADTIEMPQ (not fully specified (N-terminus); also: TAT coupled) [ψPLB-SD] | as effective as ψPLB-SE | as effective as ψPLB-SE | as effective as ψPLB-SE | – |
| RAETI [ψPLB-5-mer] | ineffective | – | – | – |
| RAETIE [ψPLB-6-mer] | only ψPLB-5-mer was ineffective | as effective as ψPLB-SE | as effective as ψPLB-SE | – |
| RAETIEM [ψPLB-7-mer] | only ψPLB-5-mer was ineffective | – | – | – |
| RAETIEMPQ (not fully specified (N-terminus); also: TAT coupled) [ψPLB-SE] | significantly blocked; also recorded: prevented dephosphorylation | completely prevented | completely reversed | Phosphorylation levels of PLB after treatment compared with basal levels [3]: slightly but significantly higher than the basal levels; Left ventricular developed pressure after ischemia/reperfusion ([4]; I/R alone 37-44 mmHg, pre-ischemia 80-100 mmHg): 73-78 mmHg; I/R-induced activation of cell death-related Caspase 3 [5]: completely reversed; Phosphorylation of PLB at Ser16 after ischemia/reperfusion [6]: significantly recovered |
| RASEIEMPQ (not fully specified (N-terminus); also: TAT coupled) [ψPLB-TE] | blocked dephosphorylation but was less effective than ψPLB-SE; also recorded: not as effective as ψPLB-SE | no or only marginal effects | negligible or marginal | – |
| RASTIEMPQ (not fully specified (N-terminus); also: TAT coupled via disulfide) [ψPLB-wt] | – | no or only marginal effects | negligible or marginal | – |
| YGRKKRRQRRR (Human immunodeficiency virus) [TAT, reference compound] | – | – | – | Effect on left ventricular developed pressure after ischemia/reperfusion [4]: no effects |
